# In US6300368A, “Anilide derivatives and antiarrhythmic agents containing the same” (priority 1998, dated 2001):
# System: aconitin-induced atrial fibrillation
# Assay: Aconitin-induced atrial fibrillation model in anaesthetized dogs (Pharmacological Trial 1)
# Assay type: in vivo, dog
# Conditions: Canis lupus familiaris; intravenous, anesthetized dogs, as hydrochloride; read-out: minimum dose level which suppresses atrial fibrillation
# Protocol: Pharmacological Trial 1: Evaluation of effectiveness in aconitin-induced atrial fibrillation model (dogs) Evaluation was performed according to K. Hashimoto (Jpn. J. Pharmacol., Vol. 46, 349-358, 1988) as follows:
# Method: Dog was anesthetized and thoracotomy was made. Persistent atrial fibrillation was induced by placing a piece of filter paper impregnated with 0.5% aconitin solution (20 to 30 μl) on the right atrium. […] Onset and suppression of atrial fibrillation were monitored electrocardiographically by placing Ag--AgCl bipolar electrode on the right atrial auricle.
# Results: Each compound in Examples 1 to 87 suppressed atrial fibrillation at least following dose level (all compounds were used in the form of hydrochloride).
row,Compound,minimal effective dose [mg/kg]
1,"COc1cccc(OC)c1C(=O)Nc1ccc(OCCN)cc1.Cl [Example 1, 4'-(2-aminoethoxy)-2,6-dimethoxybenzanilide Hydrochloride]",10
2,"CCN(CC)CCOc1ccc(NC(=O)c2c(OC)cccc2OC)cc1.Cl [Example 2, 4'-[2-(diethylamino)ethoxy]-2,6-dimethoxybenzanilide Hydrochloride]",10
3,"CCNCCOc1ccc(NC(=O)C2CCOCC2)cc1.Cl [Example 3, 4'-[2-(ethylamino)ethoxy]-3,4,5,6-tetrahydro-2H-pyran-4-carboxanilide Hydrochloride]",10
4,"COc1cc(NC(=O)c2c(OC)cccc2OC)ccc1OCCNC(C)C.Cl [Example 4, 4'-[2-(isopropylamino)ethoxy]-2,6-dimethoxy-3'-methoxybenzanilide Hydrochloride]",10
5,"CC(C)NCCOc1ccc(NC(=O)c2ccccc2S(C)(=O)=O)cc1NS(C)(=O)=O.Cl [Example 5, 4'-[2-(isopropylamino)ethoxy]-3'-methanesulfonamido-2-(methanesulfonyl)benzanilide Hydrochloride]",10
6,"Cc1cc(NC(=O)c2ccccc2NS(C)(=O)=O)cc(C)c1OCCNC(C)C.Cl [Example 6, 4'-[2-(isopropylamino)ethoxy]-2-methanesulfonamido-3',5'-dimethylbenzanilide Hydrochloride]",10
7,"CCOc1cccc(OCC)c1C(=O)Nc1ccc(OCCN(CC)CC)cc1.Cl [Example 8, 4'-[2-(Diethylamino)ethoxy]-2,6-diethoxybenzanilide Hydrochloride]",10
8,"CCN(CC)CCOc1ccc(NC(=O)c2ccccc2NS(C)(=O)=O)cc1.Cl [Example 9, 4'-[2-(Diethylamino)ethoxy]-2-(methanesulfonamido)benzanilide Hydrochloride]",10
9,"CCN(CC)CCOc1ccc(NC(=O)c2ccccc2NS(=O)(=O)CC)cc1.Cl [Example 10, 4'-[2-(Diethylamino)ethoxy]-2-(ethanesulfon amido)benzanilide Hydrochloride]",3
10,"CCCS(=O)(=O)Nc1ccccc1C(=O)Nc1ccc(OCCN(CC)CC)cc1.Cl [Example 11, 4'-[2-(Diethylamino)ethoxy]-2-(propanesulfonamido)benzanilide Hydrochloride]",3
11,"CCN(CC)CCOc1ccc(NC(=O)c2ccccc2NS(=O)(=O)C(C)C)cc1.Cl [Example 12, 4'-[2-(Diethylamino)ethoxy]-2-(isopropanesulfonamido)benzanilide Hydrochloride]",3
12,"CCCN(CCC)CCOc1ccc(NC(=O)c2c(OC)cccc2OC)cc1 [Example 13, 4'-[2-(Dipropylamino)ethoxy]-2,6-dimethoxybenzanilide]",10
13,"CCCN(CCC)CCOc1ccc(NC(=O)c2c(C)cccc2C)cc1 [Example 14, 4'-[2-(Dipropylamino)ethoxy]-2,6-dimethylbenzanilide]",3
14,"COc1cccc(OC)c1C(=O)Nc1ccc(OCCN2CCCC2)cc1 [Example 16, 2,6-Dimethoxy-4'-[2-(1-pyrrolidinyl)ethoxy]benzanilide]",10
15,"CS(=O)(=O)Nc1ccccc1C(=O)Nc1ccc(OCCN2CCCC2)cc1 [Example 17, 2-Methanesulfonamido-4'-[2-(1-pyrrolidinyl)ethoxy]benzanilide]",10
16,"COc1cccc(OC)c1C(=O)Nc1ccc(OCCN2CCCCC2)cc1 [Example 18, 2,6-Dimethoxy-4'-(2-piperidinoethoxy)benzanilide]",10
17,"Cc1cccc(C)c1C(=O)Nc1ccc(OCCN2CCOCC2)cc1 [Example 19, 2,6-Dimethyl-4'-(2morpholinoethoxy)benzanilide]",3
18,"CCNCCOc1ccc(NC(=O)c2c(OC)cccc2OC)cc1.Cl [Example 20, 4'-[(2-Ethylamino)ethoxy]-2,6-dimethoxybenzanilide Hydrochloride]",10
19,"CCNCCOc1ccc(NC(=O)c2ccccc2NS(C)(=O)=O)cc1.Cl [Example 21, 4'-[(2-Ethylamino)ethoxy]-2-(methanesulfonamido) benzanilide Hydrochloride]",10
20,"CCNCCOc1ccc(NC(=O)c2ccccc2S(C)(=O)=O)cc1.Cl [Example 22, 4'-[(2-Ethylamino)ethoxy]-2-(methanesulfonyl)benzanilide Hydrochloride]",3
21,"CCNCCOc1ccc(NC(=O)C2CCOC2)cc1.Cl (stereo not shown) [Example 23, 4'-[(2-Ethylamino)ethoxy]-2,3,4,5-tetrahydro-3-furanilide Hydrochloride]",3
22,"CCNCCOc1ccc(NC(=O)CCOC)cc1 [Example 24, 4'-[(2-Ethylamino)ethoxy]-3-methoxypropananilide]",10

row,Compound,minimal effective dose [mg/kg]
1,"CCNCCOc1ccc(NC(=O)c2ccoc2)cc1.Cl [Example 25, 4'-[(2-Ethylamino)ethoxy]-3-furanilide Hydrochloride]",10
2,"CCCNCCOc1ccc(NC(=O)c2c(OC)cccc2OC)cc1 [Example 26, 2,6-Dimethoxy-4'-[2-(propylamino)ethoxy]benzanilide]",10
3,"CCCNCCOc1ccc(NC(=O)C2CCOC2)cc1.Cl (stereo not shown) [Example 27, 4'-[2-(Propylamino)ethoxy]-2,3,4,5-tetrahydro-3-furanilide Hydrochloride]",3
4,"CCCNCCOc1ccc(NC(=O)C2CCOCC2)cc1.Cl [Example 28, 4'-[2-(Propylamino)ethoxy]-3,4,5,6-tetrahydro-2H-pyran-4-carboxanilide Hydrochloride]",3
5,"CC(C)NCCOc1ccc(NC(=O)c2ccccc2NS(C)(=O)=O)cc1.Cl [Example 29, 4'-[2-(Isopropylamino)ethoxy]-2-(methanesulfonamido) benzanilide Hydrochloride]",0.3
6,"COc1cccc(OC)c1C(=O)Nc1ccc(OCCNC(C)C)cc1 [Example 30, 4'-[2-(Isopropylamino)ethoxy]-2,6-dimethoxybenzanilide]",10
7,"Cc1cccc(C)c1C(=O)Nc1ccc(OCCNC(C)C)cc1 [Example 31, 4'-[2-(Isopropylamino)ethoxy]-2,6-dimethylbenzanilide]",10
8,"CC(C)NCCOc1ccc(NC(=O)c2ccccc2S(C)(=O)=O)cc1.Cl [Example 32, 4'-[2-(Isopropylamino)ethoxy]-2-(methanesulfonyl) benzanilide Hydrochloride]",10
9,"CC(C)NCCOc1ccc(NC(=O)C2CCOC2)cc1.Cl (stereo not shown) [Example 33, 4'-[2-(Isopropylamino)ethoxy]-2,3,4,5-tetrahydro-3-furanilide Hydrochloride]",10
10,"CC(C)NCCOc1ccc(NC(=O)C2CCOCC2)cc1.Cl [Example 34, 4'-[2-(Isopropylamino)ethoxy]-3,4,5,6-tetrahydro-2H-pyran-4-carboxanilide Hydrochloride]",3
11,"CC(C)NCCOc1ccc(NC(=O)c2ccoc2)cc1.Cl [Example 35, 4'-[2-(Isopropylamino)ethoxy]-3-furanilide Hydrochloride]",10
12,"COCCC(=O)Nc1ccc(OCCNC(C)C)cc1.Cl [Example 36, 4'-[2-(Isopropylamino)ethoxy]-3-methoxypropananilide Hydrochloride]",10
13,"CCCCNCCOc1ccc(NC(=O)c2c(OC)cccc2OC)cc1 [Example 37, 4'-[2-(Butylamino)ethoxy]-2,6-dimethoxybenzanilide]",3
14,"COc1cccc(OC)c1C(=O)Nc1ccc(OCCNCC(C)C)cc1 [Example 38, 4'-[2-(Isobutylamino)ethoxy]-2,6-dimethoxybenzanilide]",3
15,"COc1cccc(OC)c1C(=O)Nc1ccc(OCCNC(C)(C)C)cc1 [Example 39, 2,6-Dimethoxy-4'-[2-(tert-butylamino)ethoxy]benzanilide]",10
16,"CC(C)(C)NCCOc1ccc(NC(=O)c2ccccc2NS(C)(=O)=O)cc1 [Example 40, 2-Methanesulfonamido-4'-[2-(tert-butylamino)ethoxy]benzanilide]",0.3
17,"COCCNCCOc1ccc(NC(=O)c2c(OC)cccc2OC)cc1 [Example 41, 4'-[2-[(2-Methoxyethyl)amino]ethoxy]-2,6-dimethoxy Benzanilide]",10
18,"COCCNCCOc1ccc(NC(=O)c2ccccc2NS(C)(=O)=O)cc1 [Example 42, 2-Methanesulfonamido-4'-[2-[(2-methoxyethyl)amino]ethoxy]benzanilide]",3
19,"COCCNCCOc1ccc(NC(=O)C2CCOC2)cc1.Cl (stereo not shown) [Example 43, 4'-[2-[(2-Methoxyethyl)amino]ethoxy]-2,3,4,5-tetrahydro-3-furanilide Hydrochloride]",10
20,"COCCNCCOc1ccc(NC(=O)CCOC)cc1.Cl [Example 44, 4'-[2-[(2-Methoxyethyl)amino]ethoxy]-3-methoxy propananilide Hydrochloride]",10
21,"COCCNCCOc1ccc(NC(=O)c2ccoc2)cc1.Cl [Example 45, 4'-[2-[(2-Methoxyethyl)amino]ethoxy]-3-furanilide Hydrochloride]",10
22,"CCOCCNCCOc1ccc(NC(=O)c2c(OC)cccc2OC)cc1 [Example 46, 4'-[2-[(2-Ethoxyethyl)amino]ethoxy]-2,6-dimethoxy Benzanilide]",10

# Same assay, conditions: intravenous, anesthetized dogs, as hydrochloride
row,Compound,minimum dose level which suppresses atrial fibrillation [mg/kg]
1,"4'-[2-(Dimethylamino)ethoxy]-2,6-diethylbenzanilide [Example 7]",3.0
2,"4'-[2-(Dipropylamino)ethoxy]-2,6-dimethoxybenzanilide [Example 15]",10
